Kd data for one compound are collected here from publication PMC12733451, “A Novel RANKL/RANK Inhibitor IMB-R38 Inhibits Osteoporosis Through Regulating Bone Metabolism” (International Journal of Molecular Sciences, 2025).

pKd: −log10 of the molar value.

In the experiment the target is T1, RANK (Mus musculus, UniProt O35305).
T1 construct: gene Tnfrsf11a; extracellular segment of RANK (amino acid 26–210), His-RANK fusion expressed in E. coli
T1 sequence (O35305 26-210): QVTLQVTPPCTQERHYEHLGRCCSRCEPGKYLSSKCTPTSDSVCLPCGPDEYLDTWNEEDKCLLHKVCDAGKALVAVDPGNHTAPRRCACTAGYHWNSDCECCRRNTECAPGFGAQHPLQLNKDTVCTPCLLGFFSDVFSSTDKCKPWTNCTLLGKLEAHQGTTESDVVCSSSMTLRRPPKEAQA
The experiment in a line: SPR on immobilized RANK; supported by CETSA in RAW264.[…] cells. The experiment is classed as binding.

As usually defined, the pKd is the Kd on a negative log10 scale, so that one unit is a factor of ten. Higher therefore signals a small Kd. For the compound `O=C(Nc1ccc(N2CCCCC2)cc1)c1ccccc1O` [IMB-R38, 2-hydroxy-N-(4-(piperidin-1-yl)phenyl)benzamide], the pKd is 3.02.
